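Each compound was tested at five concentrations against cells in 96-well plates for 48 hours. At the GI50, growth is halved.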 Active and inactive are the calls of the source. Rule as the data show it: active = GI50 up to about 1.1 µM and inactive = higher.

Some test systems named below: 786-0; ACHN; CAKI-1; CCRF-CEM; HCT-116; HL-60; HT-29; Hs-578T; K562; MOLT-4; RPMI-8226; RXF 393; SF-295; SF-539; SK-OV-3; SNB-19; SNB-75; TK-10; U-251; UO-31.
Holding throughout (experiment): DTP human tumour cell line panel, 48 h

`Clc1ccc(/C=N/c2ccc3c(c2)Cc2ccccc2-3)c(Cl)c1`: the GI50 in the experiment on 786-0 was > 100 µM (inactive); in the experiment with ACHN it was > 100 µM (inactive); in the experiment on CAKI-1, > 100 µM (inactive); in the experiment with CCRF-CEM it was 88.5 µM (inactive); in the experiment with HCT-116, 58.1 µM (inactive); in the experiment with HL-60 it was 77.1 µM (inactive). Moreover, the GI50 in the experiment on HT-29 was > 100 µM (inactive); in the experiment with Hs-578T, > 100 µM (inactive); with K562, 58.3 µM (inactive); with MOLT-4, > 100 µM (inactive); in the experiment with RPMI-8226 it was 75.2 µM (inactive); in the experiment with RXF 393 it was > 100 µM (inactive). Also, the GI50 in the experiment with SF-295, with SF-539, in the experiment on SK-OV-3, in the experiment on SNB-19, with SNB-75 and in the experiment with TK-10 was > 100 µM (inactive) in each case. Further, the GI50 in the experiment on U-251 and in the experiment on UO-31 was > 100 µM (inactive) each time.
On to `CCOc1cc(NC(C)=O)ccc1C(=O)NN1C(=O)CSC1c1ccc(O)c(OC)c1` (configuration not stated), for which the GI50 in the experiment with 786-0 was > 100 µM (inactive); in the experiment on ACHN, 51.4 µM (inactive); in the experiment with CAKI-1 it was 44.4 µM (inactive); in the experiment on CCRF-CEM, 40.8 µM (inactive); in the experiment with HCT-116 it was 60.1 µM (inactive); in the experiment on HL-60, 41.5 µM (inactive). Also, the GI50 with HT-29 was 73.6 µM (inactive); with Hs-578T, 82.4 µM (inactive); in the experiment on K562 it was 40.7 µM (inactive); in the experiment on MOLT-4, 23.8 µM (inactive); in the experiment with RPMI-8226, 40.4 µM (inactive); with RXF 393, 34.7 µM (inactive). For the same molecule, the GI50 in the experiment with SF-295 is 50.8 µM (inactive); with SF-539, > 100 µM (inactive); with SK-OV-3, 93.5 µM (inactive); in the experiment with SNB-19 it was 89.1 µM (inactive); in the experiment on SNB-75 it was 85.3 µM (inactive); in the experiment on TK-10, 6.67 µM (inactive). Further, the GI50 in the experiment on UO-31 is 10.8 µM (inactive).
As for `CC1CN(c2cc3c(cc2F)c(=O)c(C(=O)O)cn3-c2ccc(N3CCN(C)CC3)cn2)CC(C)N1` (configuration not stated), the GI50 in the experiment on 786-0, in the experiment with CAKI-1, in the experiment with CCRF-CEM, in the experiment with HCT-116, with HL-60 and with HT-29 was > 100 µM (inactive) in each case. The GI50 was > 100 µM (inactive) in the experiment with Hs-578T; 65.6 µM (inactive) with K562; 99.5 µM (inactive) in the experiment with MOLT-4; > 100 µM (inactive) in the experiment on RPMI-8226; > 100 µM (inactive) with RXF 393; > 100 µM (inactive) in the experiment with SF-295. The GI50 is > 100 µM (inactive) with SF-539; > 100 µM (inactive) in the experiment on SK-OV-3; 70 µM (inactive) with SNB-19; > 100 µM (inactive) in the experiment with SNB-75; > 100 µM (inactive) with TK-10; 70.5 µM (inactive) in the experiment with U-251. Further, the GI50 with UO-31 is > 100 µM (inactive).
For `CC(C)(C)OC(=O)C1=C(N)N(Cc2ccccc2)C2(C)C=CC(=O)C=C12` (configuration not stated), the GI50 is 3.83 µM (inactive) in the experiment on 786-0; 2.47 µM (inactive) in the experiment on ACHN; 1.83 µM (inactive) in the experiment with CAKI-1; 2.58 µM (inactive) with CCRF-CEM; 3.27 µM (inactive) with HCT-116; 1.88 µM (inactive) with HL-60. Also, the GI50 in the experiment with HT-29 was 4.03 µM (inactive); with Hs-578T, 14.5 µM (inactive); in the experiment with K562 it was 2.74 µM (inactive); in the experiment with MOLT-4, 2.48 µM (inactive); in the experiment with RPMI-8226 it was 2.6 µM (inactive); in the experiment on RXF 393, 2.44 µM (inactive). Further, the GI50 is 14.9 µM (inactive) in the experiment with SF-295; 5.3 µM (inactive) in the experiment with SF-539; 19.5 µM (inactive) with SK-OV-3; 16.1 µM (inactive) with SNB-19; 13 µM (inactive) in the experiment on SNB-75; 3.44 µM (inactive) with TK-10. Further, the results for the GI50 in the experiment with U-251 and in the experiment with UO-31 were 8.73 µM (inactive) and 3.52 µM (inactive), respectively.
In the case of `CCOC(=O)C(NC(=O)CC)(N1CCN(c2cc3c(cc2F)c(=O)c(C(=O)O)cn3C2CC2)CC1)C(F)(F)F` (configuration not stated), the GI50 in the experiment with 786-0 is > 100 µM (inactive); with ACHN, > 100 µM (inactive); in the experiment with CAKI-1, > 100 µM (inactive); in the experiment on CCRF-CEM it was 91.8 µM (inactive); with HCT-116, > 100 µM (inactive); with HL-60 it was > 100 µM (inactive). Also, the GI50 in the experiment with HT-29, with Hs-578T, in the experiment with K562, with MOLT-4, with RPMI-8226 and in the experiment with RXF 393 was > 100 µM (inactive) throughout. Moreover, the GI50 with SF-295, with SF-539, with SK-OV-3, with SNB-19, with SNB-75 and in the experiment with TK-10 was > 100 µM (inactive) each time. Moreover, the figures for the GI50 in the experiment on U-251 and in the experiment with UO-31 were 92.9 µM (inactive) and > 100 µM (inactive), respectively.
On to `CCOC(=O)c1c(CN2CCCC2)n(-c2ccccc2)c2cc(Br)c(OC)cc12`, for which the GI50 in the experiment on 786-0 was 15 µM (inactive); in the experiment on ACHN it was 11.1 µM (inactive); in the experiment on CAKI-1 it was 41.6 µM (inactive); in the experiment with CCRF-CEM it was 8.87 µM (inactive); with HCT-116, 11.2 µM (inactive); in the experiment on HL-60, 12.5 µM (inactive). For the same molecule, the GI50 in the experiment on HT-29 is 7.57 µM (inactive); in the experiment on Hs-578T it was 29.9 µM (inactive); in the experiment on K562, 16.2 µM (inactive); with MOLT-4, 4.41 µM (inactive); with RPMI-8226, 12.8 µM (inactive); with RXF 393, 0.574 µM (active). The GI50 in the experiment with SF-295 was 14.8 µM (inactive); in the experiment on SF-539, 23.6 µM (inactive); in the experiment with SK-OV-3 it was 25.5 µM (inactive); in the experiment on SNB-19, 33.7 µM (inactive); in the experiment on SNB-75, 5.97 µM (inactive); in the experiment with TK-10, 11.8 µM (inactive). Also, the values for the GI50 with U-251 and with UO-31 were 16.1 µM (inactive) and 11.5 µM (inactive), respectively.
Turning to `CC(C)(C)NC(=O)/C(=C\Sc1ccccc1)c1ccccc1`, the GI50 was > 100 µM (inactive) in the experiment with 786-0; > 100 µM (inactive) with ACHN; > 100 µM (inactive) with CAKI-1; 40.6 µM (inactive) in the experiment on CCRF-CEM; > 65.6 µM (inactive) in the experiment on HCT-116; > 100 µM (inactive) in the experiment with HL-60. The GI50 in the experiment with HT-29 is > 100 µM (inactive); with Hs-578T it was 72.1 µM (inactive); in the experiment on K562 it was 32.7 µM (inactive); in the experiment on MOLT-4 it was 23.2 µM (inactive); in the experiment with RPMI-8226 it was 19.6 µM (inactive); with RXF 393, > 100 µM (inactive). Besides, the GI50 in the experiment with SF-295 was > 100 µM (inactive); in the experiment with SF-539 it was > 64 µM (inactive); with SK-OV-3, > 100 µM (inactive); in the experiment on SNB-19 it was > 100 µM (inactive); in the experiment with SNB-75, > 100 µM (inactive); in the experiment with TK-10 it was > 100 µM (inactive). Also, the GI50 in the experiment with U-251 and with UO-31 was > 100 µM (inactive) each time.
Regarding `Cc1ccc(S(=O)(=O)NNC(=S)Nc2cccc3ccccc23)cc1`, the GI50 is 14.2 µM (inactive) in the experiment with 786-0; 29.9 µM (inactive) in the experiment on ACHN; 55.7 µM (inactive) in the experiment on CAKI-1; 34.7 µM (inactive) in the experiment on CCRF-CEM; 55.2 µM (inactive) in the experiment on HCT-116; 28.3 µM (inactive) in the experiment with HL-60. For the same molecule, the GI50 with HT-29 is 56.5 µM (inactive); in the experiment with Hs-578T it was 97.5 µM (inactive); in the experiment with K562, 35.5 µM (inactive); in the experiment with MOLT-4 it was 38.1 µM (inactive); in the experiment with RPMI-8226, 37.4 µM (inactive); in the experiment on RXF 393, 85.9 µM (inactive). Moreover, the GI50 in the experiment on SF-295 was 34.7 µM (inactive); in the experiment with SF-539 it was 80.4 µM (inactive); with SK-OV-3, 43.3 µM (inactive); in the experiment on SNB-19 it was 68.1 µM (inactive); with SNB-75, 27.9 µM (inactive); in the experiment with TK-10, 53.7 µM (inactive). The values for the GI50 in the experiment with U-251 and with UO-31 were 40.6 µM (inactive) and 43.4 µM (inactive), respectively.
`CC1(C)OC(=O)CC12CCN(Cc1ccccc1)CC2`: the GI50 in the experiment with 786-0, with ACHN, in the experiment on CAKI-1, in the experiment on CCRF-CEM, in the experiment with HCT-116 and in the experiment on HL-60 was > 100 µM (inactive) each time. Also, the GI50 in the experiment on HT-29, with Hs-578T, in the experiment on K562, with MOLT-4, with RPMI-8226 and in the experiment with RXF 393 was > 100 µM (inactive) in each case. Moreover, the GI50 in the experiment with SF-295, in the experiment on SF-539, with SK-OV-3, with SNB-19, in the experiment on SNB-75 and in the experiment on TK-10 was > 100 µM (inactive) throughout. For the same molecule, the GI50 in the experiment with U-251 and in the experiment on UO-31 was > 100 µM (inactive) throughout.
As to `CN(C)/N=C1\C=C2CC[C@H](O[Si](C)(C)C(C)(C)C)[C@@]2(C)CC1`, the GI50 was 18 µM (inactive) in the experiment with 786-0; 16.5 µM (inactive) in the experiment with ACHN; 14.3 µM (inactive) in the experiment with CAKI-1; 11.8 µM (inactive) with CCRF-CEM; 7.93 µM (inactive) in the experiment with HL-60; 19 µM (inactive) in the experiment with HT-29. In addition, the GI50 is 18.1 µM (inactive) in the experiment on Hs-578T; 15.5 µM (inactive) with K562; 12.9 µM (inactive) in the experiment on MOLT-4; 4.4 µM (inactive) with RPMI-8226; 14.2 µM (inactive) with RXF 393; 16.4 µM (inactive) in the experiment on SF-295. The GI50 in the experiment on SF-539 is 26.2 µM (inactive); in the experiment on SK-OV-3, 24.9 µM (inactive); in the experiment with SNB-19, 17.7 µM (inactive); in the experiment on SNB-75, 16.3 µM (inactive); in the experiment with TK-10 it was 19.7 µM (inactive); in the experiment on U-251 it was 16.2 µM (inactive). The GI50 in the experiment on UO-31 was 16.3 µM (inactive).

The record behind these values is ChEMBL document CHEMBL1201862, “PubChem BioAssay data set” (2004).
